Key:
Format in all cases: cell-based
human TLR7 = target: T1, human TLR7 (Homo sapiens, UniProt Q9NYK1); test: TLR7 inhibition reporter assay (HEK-Blue cells, SEAP reporter, gardiquimod stimulation); conditions: HEK-Blue cells overexpressing human TLR7, SEAP reporter, gardiquimod 7.5 μM
T1 construct: host or cells: HEK-Blue cells (HEK293-derived reporter line)
T1 sequence (Q9NYK1 27-1049): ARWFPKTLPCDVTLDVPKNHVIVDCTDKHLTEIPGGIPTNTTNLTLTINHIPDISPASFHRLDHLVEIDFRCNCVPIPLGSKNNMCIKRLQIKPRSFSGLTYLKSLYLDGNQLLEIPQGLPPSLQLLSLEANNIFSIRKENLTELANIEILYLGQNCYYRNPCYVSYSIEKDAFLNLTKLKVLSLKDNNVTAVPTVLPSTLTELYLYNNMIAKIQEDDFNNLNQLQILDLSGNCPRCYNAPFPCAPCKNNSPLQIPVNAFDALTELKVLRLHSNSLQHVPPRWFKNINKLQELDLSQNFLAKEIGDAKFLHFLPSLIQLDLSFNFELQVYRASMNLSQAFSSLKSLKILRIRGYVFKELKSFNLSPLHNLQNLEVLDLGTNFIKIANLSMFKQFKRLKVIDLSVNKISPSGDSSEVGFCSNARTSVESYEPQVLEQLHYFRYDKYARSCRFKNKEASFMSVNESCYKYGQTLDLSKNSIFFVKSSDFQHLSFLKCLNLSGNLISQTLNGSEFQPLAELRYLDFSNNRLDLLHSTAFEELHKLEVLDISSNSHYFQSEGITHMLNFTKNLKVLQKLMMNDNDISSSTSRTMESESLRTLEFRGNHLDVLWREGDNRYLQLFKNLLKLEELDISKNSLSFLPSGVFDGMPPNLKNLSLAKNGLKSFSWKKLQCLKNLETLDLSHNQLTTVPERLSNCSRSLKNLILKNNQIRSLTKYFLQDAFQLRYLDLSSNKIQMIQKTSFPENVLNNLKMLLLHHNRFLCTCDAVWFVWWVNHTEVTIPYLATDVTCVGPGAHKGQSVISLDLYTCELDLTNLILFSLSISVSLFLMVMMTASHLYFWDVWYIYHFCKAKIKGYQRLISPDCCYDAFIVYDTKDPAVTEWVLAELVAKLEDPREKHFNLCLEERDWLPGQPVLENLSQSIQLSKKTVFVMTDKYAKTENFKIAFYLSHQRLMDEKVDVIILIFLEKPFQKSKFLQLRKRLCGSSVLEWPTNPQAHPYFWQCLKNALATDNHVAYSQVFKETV
Procedure, shortened: (§1)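 HEK-Blue cells overexpressing the receptor, with NF-κB/AP-1-driven SEAP, were pre-treated 30 min at room temperature with compound (0.05 nM–50 μM), then stimulated with gardiquimod 7.5 μM (TLR7), R848 15.9 μM (TLR8) or ODN2006 5 nM (TLR9). SEAP was read after 22 h at 37 °C as percent inhibition.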

human TLR8 = target: T2, human TLR8 (Homo sapiens, UniProt Q9NR97); test: TLR8 inhibition reporter assay (HEK-Blue cells, SEAP reporter, R848 stimulation); conditions: HEK-Blue cells overexpressing human TLR8, SEAP reporter, R848 15.9 μM
T2 construct: host or cells: HEK-Blue cells (HEK293-derived reporter line)
T2 sequence (Q9NR97 27-1041): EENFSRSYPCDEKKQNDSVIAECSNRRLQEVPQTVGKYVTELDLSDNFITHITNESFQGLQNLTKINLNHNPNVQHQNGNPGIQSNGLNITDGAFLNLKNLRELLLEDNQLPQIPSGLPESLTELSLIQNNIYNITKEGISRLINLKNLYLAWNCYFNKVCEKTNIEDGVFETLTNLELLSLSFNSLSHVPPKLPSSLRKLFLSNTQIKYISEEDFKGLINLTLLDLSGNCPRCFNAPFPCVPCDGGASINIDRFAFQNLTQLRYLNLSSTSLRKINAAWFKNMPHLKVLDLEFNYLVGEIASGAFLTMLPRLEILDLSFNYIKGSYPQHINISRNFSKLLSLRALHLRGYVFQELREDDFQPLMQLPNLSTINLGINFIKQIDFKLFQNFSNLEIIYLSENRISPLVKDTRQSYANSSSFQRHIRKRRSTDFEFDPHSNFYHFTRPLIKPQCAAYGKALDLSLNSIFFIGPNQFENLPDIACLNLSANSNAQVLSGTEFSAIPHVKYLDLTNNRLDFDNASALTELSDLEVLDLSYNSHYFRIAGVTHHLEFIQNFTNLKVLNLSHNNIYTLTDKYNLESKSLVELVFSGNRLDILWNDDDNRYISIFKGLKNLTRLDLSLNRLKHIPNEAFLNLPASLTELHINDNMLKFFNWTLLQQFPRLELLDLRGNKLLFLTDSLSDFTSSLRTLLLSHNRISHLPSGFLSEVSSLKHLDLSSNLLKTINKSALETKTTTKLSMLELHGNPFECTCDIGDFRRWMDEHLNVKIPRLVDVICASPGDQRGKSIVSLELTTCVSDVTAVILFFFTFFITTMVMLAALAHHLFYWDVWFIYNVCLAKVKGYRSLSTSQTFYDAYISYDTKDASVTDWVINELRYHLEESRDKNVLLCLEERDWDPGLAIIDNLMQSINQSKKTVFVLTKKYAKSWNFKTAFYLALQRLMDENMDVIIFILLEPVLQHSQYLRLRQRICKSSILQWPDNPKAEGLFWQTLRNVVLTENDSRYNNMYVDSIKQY
Procedure, shortened: as §1

human TLR9 = target: T3, human TLR9 (Homo sapiens, UniProt Q9NR96); test: TLR9 inhibition reporter assay (HEK-Blue cells, SEAP reporter, ODN2006 stimulation); conditions: HEK-Blue cells overexpressing human TLR9, SEAP reporter, ODN2006 5 nM
T3 construct: host or cells: HEK-Blue cells (HEK293-derived reporter line)
T3 sequence (Q9NR96 26-1032): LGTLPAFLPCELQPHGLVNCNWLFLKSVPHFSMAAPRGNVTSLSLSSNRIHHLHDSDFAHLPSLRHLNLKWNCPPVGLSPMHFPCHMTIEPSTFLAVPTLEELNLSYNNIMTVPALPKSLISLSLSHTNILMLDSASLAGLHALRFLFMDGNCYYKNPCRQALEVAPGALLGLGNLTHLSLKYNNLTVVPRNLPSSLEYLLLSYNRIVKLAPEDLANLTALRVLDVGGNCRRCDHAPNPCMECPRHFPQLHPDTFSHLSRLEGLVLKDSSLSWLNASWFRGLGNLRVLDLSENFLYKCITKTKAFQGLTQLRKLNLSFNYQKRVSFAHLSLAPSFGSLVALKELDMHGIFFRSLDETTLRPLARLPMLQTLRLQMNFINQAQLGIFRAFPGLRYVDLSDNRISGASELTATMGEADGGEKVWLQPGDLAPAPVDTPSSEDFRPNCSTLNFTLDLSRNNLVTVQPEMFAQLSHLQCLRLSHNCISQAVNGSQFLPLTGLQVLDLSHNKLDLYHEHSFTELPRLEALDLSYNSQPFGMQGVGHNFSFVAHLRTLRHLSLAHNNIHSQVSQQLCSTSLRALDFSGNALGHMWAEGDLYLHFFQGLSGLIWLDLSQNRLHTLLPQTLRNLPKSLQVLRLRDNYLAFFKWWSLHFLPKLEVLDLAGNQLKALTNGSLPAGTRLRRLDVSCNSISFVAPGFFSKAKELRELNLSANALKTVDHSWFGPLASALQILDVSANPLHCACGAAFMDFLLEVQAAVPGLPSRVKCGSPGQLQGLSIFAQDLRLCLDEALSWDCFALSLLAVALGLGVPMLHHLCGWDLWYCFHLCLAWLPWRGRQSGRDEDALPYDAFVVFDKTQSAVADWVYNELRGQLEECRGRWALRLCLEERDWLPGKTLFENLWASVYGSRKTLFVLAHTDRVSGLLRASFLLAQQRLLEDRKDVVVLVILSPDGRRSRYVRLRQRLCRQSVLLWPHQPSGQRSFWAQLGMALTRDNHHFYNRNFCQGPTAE
Procedure, shortened: as §1

IC50 (human TLR7)	IC50 (human TLR8)	IC50 (human TLR9)	Compound
< 100 nM	< 100 nM	100 to 1000 nM	CCc1c(-c2ccnc3[nH]ccc23)[nH]c2ccc(C3CCN(C4CC(C)(C)NC(C)(C)C4)CC3)cc12 [Example 838, 4-(3-ethyl-5-(2′,2′,6′,6′-tetramethyl-[1,4′-bipiperidin]-4-yl)-1H-indol-2-yl)-1H-pyrrolo[2,3-b]pyridine]
100 to 1000 nM	100 to 1000 nM	100 to 1000 nM	Cc1nc(CN2CCC(c3ccc4[nH]c(-c5ccc6nccn6c5)c(CC(F)F)c4c3)CC2)c[nH]1 [Example 939, 6-(3-(2,2-difluoroethyl)-5-(1-((2-methyl-1H-imidazol-4-yl)methyl)piperidin-4-yl)-1H-indol-2-yl)imidazo[1,2-a]pyridine]
< 100 nM	< 100 nM	100 to 1000 nM	CC(C)c1c(-c2ccnc3[nH]ncc23)[nH]c2ccc(C3CCN(C(=O)CN4CCCN(C)CC4)CC3)cc12 [Example 577, 1-(4-(3-isopropyl-2-(1H-pyrazolo[3,4-b]pyridin-4-yl)-1H-indol-5-yl)piperidin-1-yl)-2-(4-methyl-1,4-diazepan-1-yl)ethan-1-one]
< 100 nM	100 to 1000 nM	100 to 1000 nM	CNC(=O)CN1CCC(c2ccc3[nH]c(-c4cc(C(C)(C)O)c5nccn5c4)c(C(C)C)c3c2)CC1 [Example 342, 2-(4-(2-(8-(2-hydroxypropan-2-yl)imidazo[1,2-a]pyridin-6-yl)-3-isopropyl-1H-indol-5-yl)piperidin-1-yl)-N-methylacetamide]
< 100 nM	100 to 1000 nM	100 to 1000 nM	Cc1cn2cc(-c3[nH]c4ccc(C5CCN(C6COC6)CC5)cc4c3C(C)C)cc(C)c2n1 [Example 717, 6-(3-isopropyl-5-(1-(oxetan-3-yl)piperidin-4-yl)-1H-indol-2-yl)-2,8-dimethylimidazo[1,2-a]pyridine]
100 to 1000 nM	100 to 1000 nM	100 to 1000 nM	COc1cc(-c2[nH]c3ccc(C4CCN(C(=O)CN(C)C)CC4)cc3c2C(C)C)cc2nccn12 [Example 501, 2-(dimethylamino)-1-(4-(3-isopropyl-2-(5-methoxyimidazo[1,2-a]pyridin-7-yl)-1H-indol-5-yl)piperidin-1-yl)ethan-1-one]
100 to 1000 nM	100 to 1000 nM	1000 to 50000 nM	CCc1c(-c2cnnc3[nH]ccc23)[nH]c2ccc(C3CCNCC3)cc12 [Example 245, 4-(3-ethyl-5-(piperidin-4-yl)-1H-indol-2-yl)-7H-pyrrolo[2,3-c]pyridazine]
< 100 nM	< 100 nM	1000 to 50000 nM	COc1c(C)c(-c2[nH]c3ccc(C4CCN(C5CCOCC5)CC4)cc3c2C(C)C)nn2ncnc12 [Example 685, 6-(3-isopropyl-5-(1-(tetrahydro-2H-pyran-4-yl)piperidin-4-yl)-1H-indol-2-yl)-8-methoxy-7-methyl-[1,2,4]triazolo[1,5-b]pyridazine]
< 100 nM	< 100 nM	1000 to 50000 nM	Cc1nnn2ccc(-c3[nH]c4ccc(C5CCN(C6COC6)CC5)cc4c3C(C)C)cc12 [Example 743, 5-(3-isopropyl-5-(1-(oxetan-3-yl)piperidin-4-yl)-1H-indol-2-yl)-3-methyl-[1,2,3]triazolo[1,5-a]pyridine]
< 100 nM	< 100 nM	1000 to 50000 nM	CNC(=O)CN1CCC(c2ccc3[nH]c(-c4ccc5ncnn5n4)c(C(C)C)c3c2)CC1 [Example 277, 2-(4-(2-([1,2,4]triazolo[1,5-b]pyridazin-6-yl)-3-isopropyl-1H-indol-5-yl)piperidin-1-yl)-N-methylacetamide]
100 to 1000 nM	< 100 nM	1000 to 50000 nM	Cc1cc(-c2[nH]c3ccc(C4CCN(CC(=O)N(C)C)CC4)cc3c2C(C)C)cn2c(C#N)cnc12 [Example 430, 2-(4-(2-(3-cyano-8-methylimidazo [1,2-a]pyridin-6-yl)-3-isopropyl-1H-indol-5-yl)piperidin-1-yl)-N,N-dimethylacetamide]
< 100 nM	< 100 nM	100 to 1000 nM	CC(C)c1c(-c2ccc3[nH]nc(N)c3c2)[nH]c2ccc(C3CCNCC3)cc12 [Example 93, 5-(3-isopropyl-5-(piperidin-4-yl)-1H-indol-2-yl)-1H-indazol-3-amine]
< 100 nM	< 100 nM	100 to 1000 nM	CCc1c(-c2ccnc3[nH]nc(C)c23)[nH]c2ccc(C3CCN(Cc4cnc[nH]4)CC3)cc12 [Example 873, 4-(5-(1-((1H-imidazol-5-yl)methyl)piperidin-4-yl)-3-ethyl-1H-indol-2-yl)-3-methyl-1H-pyrazolo[3,4-b]pyridine]
< 100 nM	< 100 nM	1000 to 50000 nM	CC(=O)NCCNCC(=O)N1CCC(c2ccc3[nH]c(-c4ccnc5[nH]ncc45)c(C(C)C)c3c2)CC1 [Example 573, N-(2-((2-(4-(3-isopropyl-2-(1H-pyrazolo[3,4-b]pyridin-4-yl)-1H-indol-5-yl)piperidin-1-yl)-2-oxoethyl)amino)ethyl)acetamide]
